Measured values as given in PubChem BioAssay (NCI).
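Compound exposure: 48 hours, 5 concentrations, 96-well plates. TGI: concentration producing complete growth inhibition.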

Key:
Test in all cases: NCI tumour cell line growth inhibition, 48 h
786-0 renal = system: 786-0 renal
CAKI-1 renal = system: CAKI-1 renal
EKVX NSCLC = system: EKVX NSCLC
HCT-15 colon = system: HCT-15 colon
M14 melanoma = system: M14 melanoma
MALME-3M melanoma = system: MALME-3M melanoma
MDA-MB-435 = system: MDA-MB-435
MDA-N = system: MDA-N
OVCAR-8 ovarian = system: OVCAR-8 ovarian
SK-MEL-2 melanoma = system: SK-MEL-2 melanoma
SNB-19 CNS = system: SNB-19 CNS

| SMILES | TGI (786-0 renal) [µM] | TGI (CAKI-1 renal) [µM] | TGI (EKVX NSCLC) [µM] | TGI (HCT-15 colon) [µM] | TGI (M14 melanoma) [µM] | TGI (MALME-3M melanoma) [µM] | TGI (MDA-MB-435) [µM] | TGI (MDA-N) [µM] | TGI (OVCAR-8 ovarian) [µM] | TGI (SK-MEL-2 melanoma) [µM] | TGI (SNB-19 CNS) [µM] |
| --- | --- | --- | --- | --- | --- | --- | --- | --- | --- | --- | --- |
| COC(=O)C1CCC(=O)N1C(c1ccc(OC)cc1)c1ccc2c(c1)OCO2 (centres undefined) | > 100 | > 100 | > 100 | > 100 | > 100 | > 100 | 28.7 | 27.3 | > 100 | > 100 | > 100 |
| COc1ccc2c(c1)/C(=C\c1c(Cl)nc3sc(C)cn13)C(=O)N2 | 15.1 | 17.1 | 21.2 | 22.4 | 8.89 | 19.9 | 1.43 | 2.04 | 15.1 | 8.41 | 13.4 |
| O=C(O)CCC(=O)OC1N=C(c2ccccc2Cl)c2cc([N+](=O)[O-])ccc2NC1=O (centres undefined) | > 100 | > 100 | > 100 | > 100 | > 100 | > 100 | > 100 | > 100 | > 100 | > 100 | > 100 |
| Cc1cc(C(=O)CCCCOc2ccc(C3=NCCO3)cc2)c(C)n1C | > 100 | > 100 | > 100 | > 100 | > 100 | > 100 | 76.6 | 88 | > 100 | > 100 | > 100 |
| CC(=N/N=C/c1ccccn1)/C(C)=N/N=C(C)/C(C)=N/N=C(C)/C(C)=N/N=C(C)/C(C)=N\N=C\c1ccccn1 | > 100 | > 100 | > 100 | > 100 | > 100 | > 100 | > 100 | > 100 | > 100 | > 100 | > 100 |
| O=C1NCC2(CCN(CCCC3(c4ccc(F)cc4)OCCO3)CC2)N1c1ccccc1 | > 100 | > 100 | > 100 | > 100 | > 100 | > 100 | > 100 | > 100 | > 100 | > 100 | > 100 |
| CCOC(=O)c1cc2nc3ccccc3c(=O)n2c2ccccc12 | > 10 | > 10 | > 10 | > 10 | > 10 | > 10 | > 10 | > 10 | > 10 | > 10 | > 10 |
| CN1CSC(=S)N(c2c3ccccc3nc3ccc(Br)cc23)C1 | 16.6 | 24 | 33.1 | 20.4 | 26.9 | 33.2 | 26.5 | 25.3 | > 51.2 | 29.3 | 26 |
| Cc1ccc(S(=O)(=O)N/N=C/C2(c3ccccc3)c3ccccc3-c3ccccc32)cc1 | 31.2 | 62.4 | 30.2 | 22.4 | 23.3 | 19.2 | 24.4 | 14.9 | 31.5 | 25.9 | 73 |
| O=[N+]([O-])c1ccc(Oc2c(Cl)cc(S(=O)(=O)/N=C(\NO)Nc3ccc(Cl)cc3)cc2Cl)cc1 | 23.5 | 18.9 | 24.9 | 24.5 | 25.6 | 29 | 28 | 24.8 | 27.5 | 24.1 | 29.2 |
| CC1=NN(c2cccc(Cl)c2)C2(C1=C/C=C/c1ccccc1)C(Cl)C(=O)N2c1nc2ccccc2s1 (centres undefined) | > 55 | > 49.8 | > 100 | > 82.1 | > 91.2 | > 100 | > 58.4 | > 100 | 62.2 | 40.1 | > 100 |
| CC1=C[C@@H]2Cc3nc4cc(Cl)ccc4c(N)c3[C@H](C1)C2 | 19 | 17.4 | 13.3 | 24.3 | 18.1 | 24.6 | 25.8 | 31.5 | 38.9 | 29.7 | 24 |
| NS(=O)(=O)c1cc2c(cc1Cl)NC(CCC(=O)O)=NS2(=O)=O | > 100 | > 100 | > 100 | > 100 | > 100 | > 100 | > 100 | > 100 | > 100 | > 100 | > 100 |
| Cc1cccc2c1CC1(C2)Cc2c(C)cccc2C1=O (centres undefined) | 70.2 | 48.6 | 72.8 | > 100 | 77.7 | 49.7 | 55.8 | 61.8 | > 100 | 38.3 | > 100 |
| Cc1ccc(C(=C2Sc3ccccc3S2)C(=C2Sc3ccccc3S2)c2ccc(C)s2)s1 | > 100 | > 100 | > 100 | > 100 | > 100 | > 100 | > 100 | > 100 | > 100 | > 100 | > 100 |
| COc1ccc(-c2nc(SCC(=O)N/N=C/c3ccc(N(C)C)cc3)[nH]c2-c2ccc(OC)cc2)cc1 | > 100 | > 100 | > 100 | > 100 | > 100 | > 100 | > 100 | > 100 | > 100 | > 100 | > 100 |
| CC1OC(OC2C(OC(=O)[C@]34CCC(C)(C)C[C@H]3C3=CC[C@@H]5[C@@]6(C)CC[C@H](OC7OC(C(=O)O)C(O)C(O)C7O)C(C)(C)[C@@H]6CC[C@@]5(C)[C@]3(C)C[C@H]4O)OCC(O)C2O)C(O)C(OC2OCC(O)(CO)C2O)C1OC1OCC(O)C(O)C1O (some centres undefined) | 24.7 | 20 | 16.2 | 30 | 23.3 | 24.7 | 20.7 | 16 | 33.4 | 20 | 23.8 |
| CCCC(=O)OC1CC(n2cc(F)c(=O)[nH]c2=O)OC1COP(=O)(OCC(Cl)(Cl)Cl)OCC(Cl)(Cl)Cl (centres undefined) | > 100 | > 31.6 | > 100 | > 100 | > 31.6 | > 100 | > 100 | > 31.6 | > 100 | > 100 | > 100 |
| CS(=O)c1ncc2c(n1)-c1ccccc1OC2 (centres undefined) | > 100 | > 100 | > 100 | > 100 | > 100 | > 100 | > 100 | > 100 | > 100 | > 100 | > 100 |
